# Several values for one entry are separate records, joined by “and”; a condition that tells them apart may be missing. Equal values may be shown once.
# Tests used:
# [1] = test system: Factor VII; test: In vivo mouse Factor VII silencing model (FVII siRNA in lipid formulations, serum FVII chromogenic assay); parameters: species or system C57Bl/6 mice; conditions: for ED50: dose giving 50% reduction in plasma FVII vs control animals, i.v. tail vein, 24 h, FVII siRNA formulation; for Lipid A ED50: Lipid A by itself; for Lipid B ED50: Lipid B by itself; for % residual FVII: 40% cationic lipid/10% DSPC/40% cholesterol/10% PEG-DMG, FIG. 4
# Protocol: C57BL/6 mice (Charles River Labs, MA) received either saline or siRNA in desired formulations via tail vein injection at a volume of 0.01 mL/g. At various time points post-administration, animals were anesthesized by isofluorane inhalation and blood was collected into serum separator tubes by retro orbital bleed. Serum levels of Factor VII protein were determined in samples using a chromogenic assay (Coaset Factor VII, DiaPharma Group, OH or Biophen FVII, Aniara Corporation, OH) according to manufacturer protocols. A standard curve was generated using serum collected from saline treated animals. In experiments where liver mRNA levels were assessed, at various time points post-administration, animals were sacrificed and livers were harvested and snap frozen in liquid nitrogen. Frozen liver tissue was ground into powder. Tissue lysates were prepared and liver mRNA levels of Factor VII and apoB were determined using a branched DNA assay (QuantiGene Assay, Panomics, CA).
# Factor VII (FVII), a prominent protein in the coagulation cascade, is synthesized in the liver (hepatocytes) and secreted into the plasma. FVII levels in plasma can be determined by a simple, plate-based colorimetric assay. As such, FVII represents a convenient model for determining sirna-mediated downregulation of hepatocyte-derived proteins, as well as monitoring plasma concentrations and tissue distribution of the nucleic acid lipid particles and siRNA.
# C57BL/6 mice (Charles River Labs, MA) received either saline or formulated siRNA via tail vein injection. At various time points after administration, serum samples were collected by retroorbital bleed. Serum levels of Factor VII protein were determined in samples using a chromogenic assay (Biophen FVII, Aniara Corporation, OH). To determine liver mRNA levels of Factor VII, animals were sacrificed and livers were harvested and snap frozen in liquid nitrogen. Tissue lysates were prepared from the frozen tissues and liver mRNA levels of Factor VII were quantified using a branched DNA assay (QuantiGene Assay, Panomics, CA).
# FVII activity was evaluated in FVII siRNA-treated animals at 48 hours after intravenous (bolus) injection in C57BL/6 mice. FVII was measured using a commercially available kit for determining protein levels in serum or tissue, following the manufacturer's instructions at a microplate scale. FVII reduction was determined against untreated control mice, and the results were expressed as % Residual FVII. Two dose levels (0.05 and 0.005 mg/kg FVII siRNA) were used in the screen of each novel liposome composition.
# Test formulations were initially assessed for their FVII knockdown in female 7-9 week old, 15-25 g, female C57B1/6 mice at 0.1, 0.3, 1.0 and 5.0 mg/kg with 3 mice per treatment group. All studies included animals receiving either phosphate-buffered saline (PBS, Control group) or a benchmark formulation. Formulations were diluted to the appropriate concentration in PBS immediately prior to testing. Mice were weighed and the appropriate dosing volumes calculated (10 μl/g body weight). Test and benchmark formulations as well as PBS (for Control animals) were administered intravenously via the lateral tail vein. Animals were anesthetised 24 h later with an intraperitoneal injection of Ketamine/Xylazine and 500-700 μl of blood was collected by cardiac puncture into serum separator tubes (BD Microtainer). Blood was centrifuged at 2,000×g for 10 min at 15° C. and serum was collected and stored at −70° C. until analysis. Serum samples were thawed at 37° C. for 30 min, diluted in PBS and aliquoted into 96-well assay plates. Factor VII levels were assessed using a chromogenic assay (Biophen FVII kit, Hyphen BioMed) according to manufacturer's instructions and absorbance measured in microplate reader equipped with a 405 nm wavelength filter. […]
# [2] = Determination of pKa of formulated lipids with the fluorescent probe TNS; conditions: for Lipid B pKa (±0.2): Lipid B by itself, formulation 40:10:40:10
# Protocol: The pKa values for the different ionizable cationic lipids were determined essentially as described (Eastman et al., 1992 Biochemistry 31:4262-4268, which is incorporated by reference in its entirety) using the fluorescent probe 2-(p-toluidino)-6-naphthalenesulfonic acid (TNS), which is non-fluorescent in water but becomes appreciably fluorescent when bound to membranes. Vesicles composed of cationic lipid/DSPC/CH/PEG-c-DOMG (40:10:40:10 mole ratio) were diluted to 0.1 mM in buffers (130 mM NaCl, 10 mM CH3COONH4, 10 mM MES, 10 mM HEPES) of various pH values ranging from 2 to 11. An aliquot of the TNS aqueous solution (1 μM final) was added to the diluted vesicles and after a 30 second equilibration period the fluorescent of the TNS-containing solution was measured at excitation and emission wavelengths of 321 nm and 445 nm, respectively. The pKa of the cationic lipid-containing vesicles was determined by plotting the measured fluorescence against the pH of the solutions and fitting the data to a Sigmodial curve using the commercial graphing program IgorPro.
# [3] = probe 2-(p-toluidino)-6-naphthalenesulfonic acid (TNS), 1 µM final, pKa, TNS assay, vesicles cationic lipid/DSPC/CH/PEG-c-DOMG 40:10:40:10
# [4] = TNS assay, vesicles cationic lipid/DSPC/CH/PEG-c-DOMG 40:10:40:10
Structure (SMILES),"pKa [2, 3]",ED50 [1],other results
CCCCC/C=C\C/C=C\CCCCCCCCC(CCCCCCCC/C=C\C/C=C\CCCCC)OC(=O)CCCCCN(C)C [DLin-M-C5-DMA],,0.65 mg/kg,
CC/C=C\C/C=C\C/C=C\C/C=C\C/C=C\C/C=C\CCCC1(CCC/C=C\C/C=C\C/C=C\C/C=C\C/C=C\C/C=C\CC)OCC(CCN(C)C)O1 (stereo not shown) [DDha-K5-C2-DMA],6.09,0.20 mg/kg,
CCCCC/C=C\C/C=C\CCCCCCCCC(CCCCCCCC/C=C\C/C=C\CCCCC)OC(=O)CCCN(C)C [DLin-M-C3-DMA],,0.03 mg/kg,Lipid A ED50 ([1]; formulation 40:10:40:10): 0.030 mg/kg; Lipid A ED50 ([1]; formulation 50:10:38.5:1.5): 0.010 mg/kg; Lipid B ED50 ([1]; formulation 40:10:40:10): 0.030 mg/kg
CCCCC/C=C\C/C=C\CCCCCCCCC(CCCCCCCC/C=C\C/C=C\CCCCC)CN(C)C [ALNY-181],,0.25 mg/kg,
CCCCC/C=C\C/C=C\CCCCCCCC(=O)OCC(CN(C)C)OC(=O)CCCCCCC/C=C\C/C=C\CCCCC (stereo not shown) [DLin-DAP-DMA],5.67,,
CCCCC/C=C\C/C=C\C/C=C\CCCCCC(CCCCC/C=C\C/C=C\C/C=C\CCCCC)OC(=O)CCCN(C)C [DLen(γ)-M-C3-DMA],6.3,0.08 mg/kg,
CCCCC/C=C\C/C=C\C/C=C\CCCCCC(CCCCC/C=C\C/C=C\C/C=C\CCCCC)OC(=O)CCCCN(C)C [DLen(γ)-M-C4-DMA],6.75,0.50 mg/kg,
"CCCCCCCCCCC(O)CN(CCN1CCN(CCN(CC(O)CCCCCCCCCC)CC(O)CCCCCCCCCC)CC1)CCN(CC(O)CCCCCCCCCC)CC(O)CCCCCCCCCC (stereo not shown) [Compound C12-200, reference compound]",,,Lipid B ED50 ([1]; formulation 40:10:40:10): 0.030 mg/kg; Lipid B pKa (±0.2) [2]: 6.47
CCCCC/C=C\C/C=C\CCCCCCCCC(CCCCCCCC/C=C\C/C=C\CCCCC)OC(=O)CCCNC [DLin-M-C3-MA],,5.00 mg/kg,
CCCCC/C=C\C/C=C\CCCCCCCCC(CCCCCCCC/C=C\C/C=C\CCCCC)OC(=O)CCCN(CC)CC [DLin-M-C3-DEA],,0.30 mg/kg and 0.3 mg/kg,"pKa [2, 4]: 6.17"
CCCCC/C=C\C/C=C\CCCCCCCCC(CCCCCCCC/C=C\C/C=C\CCCCC)OC(=O)CCCN(C)CC [DLin-M-C3-MEA],,0.03 mg/kg,"pKa [2, 4]: 6.21"
CCCCC/C=C\C/C=C\CCCCCCCCC(CCCCCCCC/C=C\C/C=C\CCCCC)OC(=O)CCCN(C(C)C)C(C)C [DLin-M-C3-DIPA],,4.50 mg/kg and 4.5 mg/kg,
CCCCC/C=C\C/C=C\CCCCCCCC1OC2(CCN(C)CC2)OC1CCCCCCC/C=C\C/C=C\CCCCC (stereo not shown) [ALNY-156],,<0.1 mg/kg,"pKa [2, 4]: 6.08"
CCCCC/C=C\C/C=C\CCCCCCCCC1(CCCCCCCC/C=C\C/C=C\CCCCC)OCC(CCN(C)C)O1 (stereo not shown) [DLin-K5-C2-DMA],,0.10 mg/kg,"pKa ([2]; probe 2-(p-toluidino)-6-naphthalenesulfonic acid (TNS), 1 µM final): 6.68"
CCCCC/C=C\C/C=C\CCCCCCCCC(CCCCCCCC/C=C\C/C=C\CCCCC)OC(=O)CCCNCC [DLin-M-C3-EA],,5.00 mg/kg,"pKa [2, 4]: 7.62"
CCCCC/C=C\C/C=C\CCCCCCCCC(CCCCCCC/C=C\C/C=C\CCCCC)OC(=O)CCC[N+](C)(C)C (stereo not shown) [DLin-M-C3-TMA],> 1,,Lipid B ED50 ([1]; formulation 40:10:40:10): >1.00 mg/kg
CCCCC/C=C\C/C=C\CCCCCCCCC(CCCCCCCC/C=C\C/C=C\CCCCC)CN(C)CCNC(=N)N [ALNY-139],10,5.00 mg/kg,
CCCCC/C=C\C/C=C\CCCCCCCCC1(CCCCCCCC/C=C\C/C=C\CCCCC)OCC(CN(C)C)O1 (stereo not shown) [DLin-K-DMA (CDRD)],,0.40 mg/kg,"pKa [2, 4]: 5.91"
CCCCC/C=C\C/C=C\CCCCCCCCC(CCCCCCCC/C=C\C/C=C\CCCCC)OC(=O)CCCCN(C)C [DLin-M-C4-DMA],,0.15 mg/kg,"% residual FVII ([1]; 0.05 mg/kg siRNA): about 90%; % residual FVII ([1]; 0.10 mg/kg siRNA): about 90%; Lipid B ED50 ([1]; formulation 40:10:40:10): 0.150 mg/kg; Lipid B pKa (±0.2) [2]: 6.93; pKa [2, 4]: 6.93"
CCCCC/C=C\C/C=C\CCCCCCCCC(CCCCCCCC/C=C\C/C=C\CCCCC)ON=C(C)CCN(C)C [ALNY-149],,,"Lipid A ED50 ([1]; formulation 40:10:40:10): 0.050 mg/kg; pKa ([2]; probe 2-(p-toluidino)-6-naphthalenesulfonic acid (TNS), 1 µM final, Lipid A pKa (±0.2), Lipid A by itself, formulation 40:10:40:10 (cationic lipid:DSPC:cholesterol:PEG-DMG)): 6.05"
CCCCC/C=C\C/C=C\CCCCCCCCC(CCCCCCCC/C=C\C/C=C\CCCCC)OC(=O)CCN(C)C [DLin-M-C2-DMA],,0.60 mg/kg and 0.6 mg/kg,"% residual FVII ([1]; 0.05 mg/kg siRNA): about 90%; % residual FVII ([1]; 0.10 mg/kg siRNA): about 90%; Lipid A ED50 ([1]; formulation 40:10:40:10): 0.600 mg/kg; Lipid A pKa (±0.2) ([2]; Lipid A by itself, formulation 40:10:40:10 (cationic lipid:DSPC:cholesterol:PEG-DMG)): 5.64; pKa [2, 4]: 5.64"
CCCCC/C=C\C/C=C\CCCCCCCCC(CCCCCCCC/C=C\C/C=C\CCCCC)OC(=O)C(CCN(C)C)C(=O)OC(CCCCCCCC/C=C\C/C=C\CCCCC)CCCCCCCC/C=C\C/C=C\CCCCC [TLin-MAL-C2-DMA],3.93,,
CCCCC/C=C\C/C=C\CCCCCCCCOC(=O)C(CCN(C)C)C(=O)OCCCCCCCC/C=C\C/C=C\CCCCC [DLin-MAL-C2-DMA],6.66,1.50 mg/kg,

# Continued, in another order:
"pKa [2, 3]",Structure (SMILES),ED50 [1],other results
5.97,CCCCC/C=C\C/C=C\CCCCCCCCC1(CCCCCCCC/C=C\C/C=C\CCCCC)OCC(CN(C)C)CO1 [DLin-K6S-C1-DMA],0.10 mg/kg,
6.79,CCCCC/C=C\C/C=C\CCCCCCCCC1(CCCCCCCC/C=C\C/C=C\CCCCC)OC[C@@H](CCN(C)C)O1 [DLin-K-XTC2-DMA-(R)],0.10 mg/kg,
7.61,CCCCC/C=C\C/C=C\CCCCCCCCC1(CCCCCCCC/C=C\C/C=C\CCCCC)OCC(CCCCN(C)C)CO1 [DLin-K6S-C4-DMA],4.00 mg/kg,
5.94,CCCCC/C=C\C/C=C\CCCCCCCCC1(CCCCCCCC/C=C\C/C=C\CCCCC)OCC(CN(C)C)O1 (stereo not shown) [DLin-K-DMA (Biofine)],0.25 mg/kg,
6.26,CCCCC/C=C\C/C=C\C/C=C\C/C=C\CCCCC1(CCCC/C=C\C/C=C\C/C=C\C/C=C\CCCCC)OCC(CCN(C)C)O1 (stereo not shown) [DAra-K5-C2-DMA],0.52 mg/kg,
6.95,CCCCC/C=C\C/C=C\CCCCCCCCC1(CCCCCCCC/C=C\C/C=C\CCCCC)OCCC(CCCN(C)C)O1 (stereo not shown) [DLin-K6A-C3-DMA],0.70 mg/kg,
6.63,CCCCC/C=C\C/C=C\CCCCCCCCC1(CCCCCCCC/C=C\C/C=C\CCCCC)O[C@@H]2C3CC([C@H](N(C)C)C3)[C@@H]2O1 (stereo partly shown) [ALNY-171],0.25 mg/kg,
7.25,CCCCC/C=C\C/C=C\CCCCCCCCC1(CCCCCCCC/C=C\C/C=C\CCCCC)OCC(CCN(C)C)CO1 [DLin-K6S-C2-DMA],3.00 mg/kg,
10,CCCCC/C=C\C/C=C\CCCCCCCCC1(CCCCCCCC/C=C\C/C=C\CCCCC)OCC(NC(=N)N)O1 (stereo not shown) [ALNY-232],,
6.59,CC/C=C\C/C=C\C/C=C\CCCCCCCCC1(CCCCCCCC/C=C\C/C=C\C/C=C\CC)OCC(CCN(C)C)O1 (stereo not shown) [DLen-K5-C2-DMA],0.05 mg/kg,
6.73,CCCCC/C=C\C/C=C\CCCCCCCCC1(CCCCCCCC/C=C\C/C=C\CCCCC)OCCC(CCN(C)C)O1 (stereo not shown) [DLin-K6A-C2-DMA],0.25 mg/kg,
6.65,CCCCC/C=C\C/C=C\CCCCCCCCC1(CCCCCCCC/C=C\C/C=C\CCCCC)OC[C@H](CCN(C)C)O1 [DLin-K-XTC2-DMA-(S)],0.10 mg/kg,

# Reference: patent US20160317676A1, “METHODS AND COMPOSITIONS FOR DELIVERY OF NUCLEIC ACIDS” (Tekmira Pharmaceuticals Corporation, priority 2009, published 2016)
